Measured values from patent US20260158050A1, “USE OF EIDD-1931 OR DERIVATIVE THEREOF IN TREATMENT OF ENTEROVIRUS INFECTION” (ACADEMY OF MILITARY MEDICAL SCIENCES, priority 2022, published 2026).

Key:
EV-A71 H strain = assay: protection against cytopathic effect (CPE) caused by EV-A71, Cell-Titer Glo; format: cell-based; details: for EC50: EV-A71 H strain, 3 days; for inhibition of the cytopathic effect caused by the virus: multiple cell lines infected with EV-A71 (FIG. 2)
Experimental: Human liver tumor cells (Huh7 cells) used in the experiment were purchased from Chinese National Infrastructure of Cell Line Resource. Human […] cells (RD cells) and African green monkey kidney cells (Vero cells) were purchased from ATCC (Cat. No.: CCL-136 and CCL-81, respectively). The above cells were cultured in a cell culture incubator at 37° C. and 5% CO2. The complete culture medium used for cell growth was DMEM high-glucose culture medium (purchased from Gibco, Cat. […] No.: 16000044) and penicillin-streptomycin (purchased from Gibco, Cat. No.: 2321152). The maintenance culture medium used for cell culture was DMEM high-glucose culture medium supplemented with 2% FBS and penicillin-streptomycin. H strain of EV-A71 was purchased from ATCC (Cat. No.: VR-1432). Compounds EIDD-1931 and EIDD-2801 were purchased from Shanghai Topscience Biochemical Technology Co., Ltd. (Cat Nos: […] and […], respectively), and their structures were shown in FIG. 1. Cell-Titer Glo® Luminescent Cell Viability Assay Solution was purchased from Promega (Cat. No.: G7572). The microplate reader, model Spectra Max M5, was purchased from Molecular Devices. Huh7 cells, RD cells, and Vero cells were seeded into a 96-well plate with a white wall and a transparent bottom at a density of about 1.0×10^4 per well and cultured at 37° C. and 5% CO2 for 24 hours. Then, the EV-A71 virus was diluted with cell maintenance solution and added to the 96-well plate to reach a final concentration of 100TCID50. […] After 3 days, the supernatant was discarded, and the diluted Cell-Titer Glo® Luminescent Cell Viability Assay Solution was added. The cells were shaken and lysed for 5 minutes in the dark, and then allowed to stand for 3 minutes. Finally, the luminescence value of each well was measured using the microplate reader. The formula for calculating the inhibition rate of the test compounds against virus was: [formula] Origin9.0 software was used to fit the inhibition rate-concentration S-shaped curve and calculate the half-maximal effective concentrations (EC50) of the test compounds. The half-cytotoxic concentrations (CC50) of the test compounds were calculated using the same method, and the select index (SI) was calculated based on EC50 and CC50: SI=CC50/EC50.

RD cells = assay: cytotoxicity test on RD cells; format: cell-based, Human; details: 3 days
Experimental: (§1) Human liver tumor cells (Huh7 cells) used in the experiment were purchased from Chinese National Infrastructure of Cell Line Resource. Human […] cells (RD cells) and African green monkey kidney cells (Vero cells) were purchased from ATCC (Cat. No.: CCL-136 and CCL-81, respectively). The above cells were cultured in a cell culture incubator at 37° C. and 5% CO2. The complete culture medium used for cell growth was DMEM high-glucose culture medium (purchased from Gibco, Cat. […] No.: 16000044) and penicillin-streptomycin (purchased from Gibco, Cat. No.: 2321152). The maintenance culture medium used for cell culture was DMEM high-glucose culture medium supplemented with 2% FBS and penicillin-streptomycin. H strain of EV-A71 was purchased from ATCC (Cat. No.: VR-1432). […] The microplate reader, model Spectra Max M5, was purchased from Molecular Devices. […] Finally, the luminescence value of each well was measured using the microplate reader. The inhibition rate of the test compounds at each dilution was calculated as follows: [formula] […] The half-cytotoxic concentrations (CC50) of the test compounds were calculated using the same method, and the select index (SI) was calculated based on EC50 and CC50: SI=CC50/EC50.

Huh7 cells = assay: cytotoxicity test on Huh7 cells; format: cell-based, Human; details: 3 days
Experimental: as §1

EV-A71 [1] = assay: infectious virus particle formation in supernatant (TCID50 detection); format: cell-based; details: supernatant of RD cells, TCID50 (FIG. 3 A and C)
EV-A71 [2] = assay: time series experiment, intracellular viral RNA load in RD cells; format: cell-based; details: 10 μM, 0.01 MOI (FIG. 5)
Experimental: The specific steps were as follows: RD cells were seeded in a 12-well plate at a density of about 4.0×10^5 per well and cultured at 37° C. and 5% CO2 for 24 hours. Subsequently, the test compound EIDD-1931, the positive compound NITD008 and the EV-A71 virus were diluted to the corresponding concentrations with the cell maintenance medium, and then the pre-diluted compound or virus was added at the time point as shown in A in FIG. 5. After 30 hours of continuous culture, the cell supernatant was discarded, the intracellular RNA was extracted, and the intracellular viral RNA load was detected by qRT-PCR. The intracellular RNA extraction method and qRT-PCR system and reaction conditions were the same as described above.

EV-A71 AH08/06 = assay: CPE protection, EV-A71 AH08/06 strain; format: cell-based; details: EV-A71 AH08/06, RD cells
EV-D68 STL-2014-12 = assay: CPE protection, EV-D68 STL-2014-12 strain; format: cell-based; details: for EC50: EV-D68 STL-2014-12, RD cells
[3] = test system: CHIKV, VEEV, RSV, HCV, NV, IAV, IBV, EBOV, MERS-CoV, SARS-CoV-2; details: background art; cited from earlier work
MERS-CoV or SARS-CoV = details: mice, cited from earlier work

Compound	EC50 (EV-A71 H strain; Huh7 cells) [µM]	EC50 (EV-A71 H strain; RD cells) [µM]	EC50 (EV-A71 H strain; Vero cells) [µM]	SI (CC50/EC50) (EV-A71 H strain; Huh7 cells)	SI (CC50/EC50) (EV-A71 H strain; RD cells)	SI (CC50/EC50) (EV-A71 H strain; Vero cells)	inhibition of the cytopathic effect caused by the virus (EV-A71 H strain)	CC50 (RD cells) [µM]	CC50 (Huh7 cells) [µM]	inhibition of production of infectious viral particles (EV-A71 [1])	inhibition on the adsorption and entry of the virus (EV-A71 [2])	stage of virus infection at which the antiviral effect is exerted (EV-A71 [2])	EC50 (EV-A71 AH08/06) [µM]	EC50 (EV-D68 STL-2014-12) [µM]	inhibitory effects against CHIKV, VEEV, RSV, HCV, NV, IAV, IBV, EBOV, MERS-CoV and SARS-CoV-2 [3]	inhibitory activity against EV-V68 (EV-D68 STL-2014-12)	lung damage caused by MERS-CoV or SARS-CoV infections (MERS-CoV or SARS-CoV; preventive use)	degree of lung damage and weight loss (MERS-CoV or SARS-CoV; therapeutic use within 12 hours or 24 hours after infection)
O=c1nc(NO)ccn1[C@@H]1O[C@H](CO)[C@@H](O)[C@H]1O [EIDD-1931]	4.43 ± 0.33	5.13 ± 0.56	7.04 ± 0.38	7.69	15.69	2.0	dose-dependently inhibit	80.47 ± 0.02	34.09 ± 0.06	inhibited	no obvious inhibition	viral replication stage	2.79 ± 0.89	9.69 ± 0.04	good inhibitory effects	–	–	–
CC(C)C(=O)OC[C@H]1O[C@@H](n2cc/c(=N\O)[nH]c2=O)[C@H](O)[C@@H]1O [EIDD-2801]	35.6 ± 0.47	70.1 ± 4.4	88.5 ± 3.18	> 2.81	> 1.43	> 1.13	dose-dependently inhibit	> 100	> 100	inhibited	–	–	30.3 ± 0.55	86.2 ± 9.17	–	low inhibitory activity	prevent lung damage	significantly reduce
